According to article PMC7641330 (2020):

Legend:
[1] = system: A13(2AP) Tte riboswitch (RNA, riboswitch, 2-aminopurine at 13) CUGGGUCGCAGUAACCCCAGUUAACAAAACAAG; assay: 2-aminopurine fluorescence titration, one-site fit; conditions: 100 mM NaCl, 2 mM MgCl2; 50 mM Na-HEPES pH 7.0; 100 nM RNA
[2] = system: A32(2AP) Tte riboswitch (RNA, riboswitch, 2-aminopurine at 32) CUGGGUCGCAGUAACCCCAGUUAACAAAACAAG; assay: ITC; conditions: 100 mM NaCl, 4 mM MgCl2; 50 mM Na-HEPES pH 7.0, 25 °C
[3] = system: A14(2AP) Tte riboswitch (RNA, riboswitch, 2-aminopurine at 14) CUGGGUCGCAGUAACCCCAGUUAACAAAACAAG; assay: ITC; conditions: 100 mM NaCl, 4 mM MgCl2; 50 mM Na-HEPES pH 7.0, 25 °C
[4] = system: A14(2AP) Tte riboswitch (RNA, riboswitch, 2-aminopurine at 14) CUGGGUCGCAGUAACCCCAGUUAACAAAACAAG; assay: 2-aminopurine fluorescence titration, one-site fit; conditions: 100 mM NaCl, 2 mM MgCl2; 50 mM Na-HEPES pH 7.0; 100 nM RNA
[5] = system: A10(2AP) Tte riboswitch (RNA, riboswitch, 2-aminopurine at 10) CUGGGUCGCAGUAACCCCAGUUAACAAAACAAG; assay: 2-aminopurine fluorescence titration, one-site fit; conditions: 100 mM NaCl, 2 mM MgCl2; 50 mM Na-HEPES pH 7.0; 100 nM RNA
[6] = system: A32(2AP) Tte riboswitch (RNA, riboswitch, 2-aminopurine at 32) CUGGGUCGCAGUAACCCCAGUUAACAAAACAAG; assay: 2-aminopurine fluorescence titration, one-site fit; conditions: 100 mM NaCl, 2 mM MgCl2; 50 mM Na-HEPES pH 7.0; 100 nM RNA
[7] = system: A10(2AP) Tte riboswitch (RNA, riboswitch, 2-aminopurine at 10) CUGGGUCGCAGUAACCCCAGUUAACAAAACAAG; assay: ITC; conditions: 100 mM NaCl, 4 mM MgCl2; 50 mM Na-HEPES pH 7.0, 25 °C
[8] = system: Wildtype Tte preQ1-I riboswitch 33-mer (RNA, riboswitch) CUGGGUCGCAGUAACCCCAGUUAACAAAACAAG; assay: ITC; conditions: 100 mM NaCl, 4 mM MgCl2; 50 mM Na-HEPES pH 7.0, 25 °C
[9] = system: Wildtype Tte riboswitch, biotinylated (SPR) (RNA, riboswitch) CUGGGUCGCAGUAACCCCAGUUAACAAAACAAG; assay: SPR, 1:1 kinetic fit; conditions: 100 mM NaCl, 3 mM MgCl2; 10 mM Na-HEPES pH 7.4; immobilised RNA
[10] = system: A13(2AP) Tte riboswitch (RNA, riboswitch, 2-aminopurine at 13) CUGGGUCGCAGUAACCCCAGUUAACAAAACAAG; assay: ITC; conditions: 100 mM NaCl, 4 mM MgCl2; 50 mM Na-HEPES pH 7.0, 25 °C

NCc1c[nH]c2nc(N)[nH]c(=O)c12
apparent KD [1]: 25.7 ± 2.4 nM | KD [2]: 10.5 ± 2.4 nM | KD [3]: 19.3 ± 0.8 nM | apparent KD [4]: 34.2 ± 1.6 nM | apparent KD [5]: 13.9 ± 0.7 nM | apparent KD [6]: 12.3 ± 1.4 nM | KD [7]: 12.6 ± 2.0 nM | KD [8]: 8.1 ± 0.9 nM | KD [9]: 1.84 ± 0.08 × 10^-9 M | KD [10]: 21.6 ± 1.1 nM
